From publication PMC5587768, “Ligand activation induces different conformational changes in CXCR3 receptor isoforms as evidenced by plasmon waveguide resonance (PWR)” (Scientific Reports, 2017)
“And” between values parts separate entries of the source, which are not always exact repeats. Equal entries are not always repeated. One block for each compound: values may come before it.

Key:
CXCR3-A [1] = biological target: T1, CXCR3-A (Homo sapiens, UniProt P49682); assay: Calcium flux by flow cytometry in HEK-CXCR3-A cells; format: cell-based
T1 construct: The coding regions of human CXCR3-A or CXCR3-B cDNA; expressed in transfected cells; host or cells: HEK-293, stably transfected (HEK-CXCR3-A)
T1 sequence (P49682 1-368): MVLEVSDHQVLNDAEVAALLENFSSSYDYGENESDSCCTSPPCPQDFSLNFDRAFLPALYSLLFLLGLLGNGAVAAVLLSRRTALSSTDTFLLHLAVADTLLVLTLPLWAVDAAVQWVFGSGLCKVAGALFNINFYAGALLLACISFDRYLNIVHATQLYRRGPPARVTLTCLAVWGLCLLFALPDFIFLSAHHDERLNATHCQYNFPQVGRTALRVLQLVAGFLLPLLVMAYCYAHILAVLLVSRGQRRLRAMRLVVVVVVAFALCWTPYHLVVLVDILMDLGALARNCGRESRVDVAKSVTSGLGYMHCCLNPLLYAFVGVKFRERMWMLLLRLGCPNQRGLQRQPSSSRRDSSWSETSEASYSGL
Procedure: (§1) Human Embryonic Kidney (HEK-293) cell lines, were regularly tested for contamination and were all mycoplasma-free. Cells were cultured in Dulbecco’s Modified Eagle’s medium (DMEM, Thermo Fisher Scientific) supplemented with 10% Fetal Bovine Serum (FBS), 5% antibiotics (Penicillin and […]) and 5% L-glutamine. All cells were grown at 37 °C, 5% CO2 and split at 70–90% of confluence with 0.25% Trypsin. Cell transfection was performed using Effecten kit (Qiagen) according to the manufacter’s instruction. HEK-CTRL (HEK-293 stably transfected with empty pEGFPN2 vectors) HEK-CXCR3-A cells and HEK-CXCR3-B (HEK-293 stably transfected with pEGFPN2 + CXCR3-A or pEGFPN2 + CXCR3-B vectors, respectivly) were grown in the presence of Zeocin (200 µg/ml). For inhibition experiments, cells were pretreated 1 h with the CXCR3 antagonist SCH546738 at dose-dependant concentration. SCH546738 is a small molecular lipophilic molecule, with the chemical formula: C23H31Cl2N7O. […] For this reason a concentration range from 0.5 to 2.2 nM has been used.
(§2) Intracellular calcium concentration was measured using Calcium Assay Kit (BD 640176) according to the manufacter’s procedure on an AccuriC6 flow cytometer equipped with BD AccuriC6 software (BD, San Jose, CA). Cells were placed in suspension and 1X Dye loading solution was added for 20 min at 37 °C. Calcium concentration was then recorded for 5 min on the AccuriC6 flow cytometer. CXCR3 agonist stimulation was performed after 2 min of recording and intracellular calcium increase was visualized. Calcium concentration after stimulation was normalized by calcium concentration before stimulation. Cells without 1X dye loading solution were used as a negative control in order to quantify the background level.

CXCR3-B [2] = biological target: T2, CXCR3-B (Homo sapiens, UniProt P49682); assay: Plasmon waveguide resonance (PWR) on HEK-CXCR3-B cell membrane fragments; format: binding; settings: for Kd: HEK-CXCR3-B cell fragments, incremental ligand addition, hyperbolic fit
T2 construct: The coding regions of human CXCR3-A or CXCR3-B cDNA; expressed in transfected cells; host or cells: HEK-293, stably transfected (HEK-CXCR3-B)
T2 sequence (P49682 1-415 isoform P49682-2): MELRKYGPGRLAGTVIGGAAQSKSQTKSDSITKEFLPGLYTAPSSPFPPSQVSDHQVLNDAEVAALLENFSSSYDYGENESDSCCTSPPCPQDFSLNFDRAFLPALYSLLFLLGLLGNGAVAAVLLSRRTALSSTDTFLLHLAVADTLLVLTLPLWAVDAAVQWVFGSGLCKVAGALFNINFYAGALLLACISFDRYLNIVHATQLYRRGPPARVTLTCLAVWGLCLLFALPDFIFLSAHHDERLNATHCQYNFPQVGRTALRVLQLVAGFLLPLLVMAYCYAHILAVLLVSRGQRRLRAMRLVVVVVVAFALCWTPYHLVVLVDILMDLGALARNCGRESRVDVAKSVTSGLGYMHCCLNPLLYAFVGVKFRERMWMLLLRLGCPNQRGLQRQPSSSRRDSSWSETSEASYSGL
Excerpt: (§3) Ligand-mediated activation of CXCR3 was studied by PWR and flow cytometry measuring calcium flux. The former technique allows to determine the affinity, ligand-binding kinetics and anisotropy of the events occurring at the sensor surface. This technique gives the possibility of following resonance with two types of polarizations, p- and s-polarizations. PWR can be applied both to artificial lipid model systems with reconstituted receptors or to cell fragments[27]–[34]. In the present study, cell membrane fragments from cells expressing the CXCR3-A and CXCR3-B receptors were immobilized on the PWR sensor which is composed of a prism coated with a silver layer and overcoated with a silica layer. The prism is pre-treated with polylysine to promote cell adhesion by electrostatic interactions between the negative charges provided by the cell surface glycosaminoglycans (GAGs) and the positive charges of polylysine. The quality of HEK-CTRL, HEK-CXCR3-A and HEK-CXCR3-B membrane fragments was verified by confocal microscopy by visualizing the GFP-tagged receptors using glass slides of the same material (silica) than the outer layer of the sensor surface (Fig. 1A). The presence of fluorescent membrane fragments on the glass slide of few μm were evidenced in agreement with reported literature.
(§4) In contrast, membrane fragments of cells expressing either CXCR3-A or CXCR3-B responded to ligand stimulation in a saturable manner (Fig. 2; Fig. S3). […] PWR is sensitive to both, mass and structural changes. Inasmuch as the ligand is far too small to contribute to a mass change by itself, the PWR spectral changes observed correspond to ligand-induced receptor conformational changes (upon formation of the R/L complex). From the saturable and hyperbolic binding response, a dissociation constant was determined. The cell fragments are quite stable after sensor immobilization as no alterations in the spectra were observed after repetitive and extensive washing with buffer. Furthermore, lipids and receptors are oriented with their long axis along the p-polarization axis as shown by the anisotropic response. Thus, spectral modifications observed in p-polarization reflect changes along the receptor main axis, while modifications in s-polarization reflect changes along the receptor minor axis (Fig. S2). In HEK-CXCR3-A cells, agonist binding led to an increase in the resonance minimum position for both p- and s-polarization. A positive shift in the resonance angle is correlated with an increase in the refractive index due to a mass increase in the system. Since the ligand, by itself, is too small to be able to produce such spectral changes, the response can only be attributed to conformational change in the receptor which is reflected by an increase in mass density. […] The negative shift, while of considerably smaller magnitude, results from a slight decrease in the mass density in the system and can be attributed to a conformational change leading to a looser and less ordered arrangement of the TM helices accompanied by a slight decrease in length. Thus, agonist-mediated CXCR3 activation leads to opposite conformational changes depending on the CXCR3 isoform.
(§5) PWR measurements were performed in a homemade instrument equiped with a He-Ne laser, with a fixed wavelenght in the visible region (λ = 632 nm; Melles Griot), a rotating table allowing the incident angle to be changed by steps ≤1 mdeg (thus resolution being on that order; Newport) and a photodiode detector (Hamamatsu) to measure the reflected light as a function of the incident angle. The polarization angle of the incident beam is placed at 45° allowing both p- and s-polarized spectra to be obtained within the same angular scan. The sensor consisted in a BK-7 prism coated with silver and silica (to support waveguide modes)[36]. All measurements were performed at 22 °C in a temperature controlled room. More details about this technology can be found. […]

CXCR3-B [3] = biological target: T2, CXCR3-B; assay: Calcium flux by flow cytometry in HEK-CXCR3-B cells; format: cell-based
Procedure: as §1, §2

CXCR3 = settings: cited from earlier work
CXCR3-A [4] = biological target: T1, CXCR3-A; assay: Plasmon waveguide resonance (PWR) on HEK-CXCR3-A cell membrane fragments; format: binding; settings: for Kd: HEK-CXCR3-A cell fragments, incremental ligand addition, hyperbolic fit; for Difference in KD between CXCR3-A and CXCR3-B (higher affinity for CXCR3-A): KD CXCR3-B versus KD CXCR3-A
Excerpt: as §3, §4, §5

HEK-CTRL cell fragments = assay: Plasmon waveguide resonance (PWR) on HEK-CTRL cell fragments (empty GFP vector control); format: binding, human
Excerpt: as §4
as §5, with “found. The protocol for adhesion of cell fragments on silica (glass slides or PWR sensor) was adapted from reported work from Vogel and collaborators.” for “found.”

Intracellular calcium flux after agonist stimulation (CXCR3-A [1]; HEK-CXCR3-A cells): increase intracellular calcium flux
Shift in resonance minimum position, P-pol (CXCR3-B [2]; HEK-CXCR3-B, p-polarization, incremental addition to saturation): -5 +/- 1 mdeg
Shift in resonance minimum position, S-pol (CXCR3-B [2]; HEK-CXCR3-B, s-polarization, incremental addition to saturation): -4 +/- 1 mdeg
Kd (CXCR3-B [2]; PWR): 450 nM
Intracellular calcium flux after agonist stimulation (CXCR3-B [3]; HEK-CXCR3-B cells): increase intracellular calcium flux
Shift in resonance minimum position, P-pol (CXCR3-A [4]; HEK-CXCR3-A, p-polarization, incremental addition to saturation): 16 +/- 12 mdeg
Shift in resonance minimum position, S-pol (CXCR3-A [4]; HEK-CXCR3-A, s-polarization, incremental addition to saturation): 4 +/- 1 mdeg
Kd (CXCR3-A [4]; PWR): 40 nM
Difference in KD between CXCR3-A and CXCR3-B (higher affinity for CXCR3-A) (CXCR3-A [4]; PWR): 10 fold
Structure (SMILES): NC(N)=NCCC[C@H](NC(=O)[C@@H]1Cc2ccccc2CN1C(=O)CCC(=O)c1ccccc1)C(=O)NCC1CCCCC1 [PS372424]
IC50 (CXCR3; isoforms not distinguished, read-out: IC50 reported for binding to CXCR3): 42 nM
Shift in resonance minimum position, P-pol (HEK-CTRL cell fragments; HEK-CTRL, p-polarization): 0 +/- 1 mdeg
Shift in resonance minimum position, S-pol (HEK-CTRL cell fragments; HEK-CTRL, s-polarization): 0 +/- 1 mdeg
KD (HEK-CTRL cell fragments; PWR, HEK-CTRL cell fragments): No binding

Structure (SMILES): CC[C@H]1CN(c2nc(N)c(C(N)=O)nc2Cl)CCN1C1CCN(Cc2ccc(Cl)cc2)CC1 [SCH546738]
Receptor activation by agonist (calcium flux) after SCH546738 pretreatment (CXCR3-A [1]; HEK-CXCR3-A cells pretreated with SCH546738): no longer activated
Inhibition of CXCR3-A activation (calcium flux) (CXCR3-A [1]; at 1 nM): more than 70%
Kd (CXCR3-B [2]; PWR): 1.5 nM
Agonist binding after SCH546738 at 1 nM (CXCR3-B [2]; PWR, HEK-CXCR3-B, SCH546738 1 nM): binding was still observed
Agonist binding after SCH546738 at saturating concentration (CXCR3-B [2]; PWR, HEK-CXCR3-B, SCH546738 2.2 nM, 1 h): completely abolished
Receptor activation by agonist (calcium flux) after SCH546738 pretreatment (CXCR3-B [3]; HEK-CXCR3-B cells pretreated with SCH546738): no longer activated
Inhibition of CXCR3-B activation (calcium flux) (CXCR3-B [3]; at 1 nM): 25%
Kd (CXCR3; other reports and methods, read-out: Affinity to CXCR3 reported): 0.8 to 2.2 nM and 0.4 to 2.2 nM
Kd (CXCR3-A [4]; PWR): 0.5 nM
Agonist binding after SCH546738 at 1 nM (CXCR3-A [4]; PWR, HEK-CXCR3-A, SCH546738 1 nM): totally abrogated
Agonist binding after SCH546738 at saturating concentration (CXCR3-A [4]; PWR, HEK-CXCR3-A, SCH546738 2.2 nM, 1 h): completely abolished
Difference in KD between CXCR3-A and CXCR3-B (higher affinity for CXCR3-A) (CXCR3-A [4]; PWR): 3 fold
PWR response of control cell fragments (non-specific binding) (HEK-CTRL cell fragments; HEK-CTRL cell fragments): did not respond
